Calls of active or inactive are those of the source.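 Rule for the calls: active = a tumour-causing dose and a tumour site recorded for mice in at least one sex group; inconclusive = only government mouse studies exist and were judged inadequate; inactive = mouse studies exist but none gave tumours.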

The data set has as its system mouse carcinogenicity bioassay, TD50 from CPDB. The data set can be described thus: DSSTox (CPDBAS) Carcinogenic Potency Database Summary Mouse Bioassay Results. The procedure, abridged:
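Chronic long-term mouse cancer bioassays from literature and NCI/NTP, compiled per sex. TD50 is the standardized carcinogenic potency, using the most positive experiment per sex-species; target sites follow author opinion.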

Setting [1] is: TD50_Mouse_Note: no positive results, TargetSites_Mouse_Female: no positive results.
[2] abbreviates: TD50_Mouse_Note: TD50 is harmonic mean of more than one positive test, TargetSites_Mouse_Female: liver.
[3] abbreviates: TD50_Mouse_Note: TD50 is harmonic mean of more than one positive test, TargetSites_Mouse_Female: liver, vascular system.
The mark [4] stands for this setting: TargetSites_Mouse_Female: no positive results.
The mark [5] stands for this setting: TD50_Mouse_Note: TD50 is harmonic mean of more than one positive test, TargetSites_Mouse_Female: stomach.

Consider `CN1[C@@H]2CC(OC(=O)[C@@H](CO)c3ccccc3)C[C@H]1[C@@H]1O[C@@H]12` (stereo partly specified), for which, under setting [1], the outcome was “inactive; no positive results”.
The same measure, in the same setting: the entry for `O=C1NCCN1` is “inactive; no positive results”.
As for `CC[C@H]1OC(=O)[C@H](C)[C@@H](O[C@H]2C[C@@](C)(OC)[C@@H](O)[C@H](C)O2)[C@H](C)[C@@H](O[C@@H]2O[C@H](C)C[C@H](N(C)C)[C@H]2O)[C@](C)(O)C[C@@H](C)C(=O)[C@H](C)[C@@H](O)[C@]1(C)O`, the outcome under setting [1] was “inactive; no positive results”.
Regarding `C1N2CN3CN1CN(C2)C3`, the outcome under setting [1] was “inactive; no positive results”.
Regarding `CC(=O)Nc1ccc(C(=O)CCl)cc1`, the outcome under setting [1] is “inactive; no positive results”.
For the compound `CC(/C=C/C=C(\C)C(=O)O[C@@H]1O[C@H](CO[C@@H]2O[C@H](CO)[C@@H](O)[C@H](O)[C@H]2O)[C@@H](O)[C@H](O)[C@H]1O)=C\C=C\C=C(C)\C=C\C=C(/C)C(=O)O[C@@H]1O[C@H](CO[C@@H]2O[C@H](CO)[C@@H](O)[C@H](O)[C@H]2O)[C@@H](O)[C@H](O)[C@H]1O`, under setting [1], the outcome was “inactive; no positive results”.
`Cc1cc(O)c2c(c1)C(=O)c1cc(O)cc(O)c1C2=O`: under setting [1], the outcome is “inactive; no positive results”.
Consider `C=CC(O)c1ccc2c(c1)OCO2` (stereo unspecified), for which the Potency under setting [2] was 0.4 mmol/kg/day.
In the case of `NC(=O)OCC(COC(N)=O)c1ccccc1`, under setting [2], the Potency is 31.1 mmol/kg/day.
For `COc1ccc(C(=O)/C(Br)=C\C(=O)O)cc1`, the outcome under setting [1] is “inactive; no positive results”.
On to `O=C/C(Cl)=C(/Cl)C(=O)O`, for which the outcome under setting [1] was “inactive; no positive results”.
In the case of `ClC(Br)Br`, the Potency (TargetSites_Mouse_Female: liver) was 0.667 mmol/kg/day.
As to `O=c1ccc2ccccc2o1`, where the note is “TD50_Mouse_Note: TD50 is harmonic mean of more than one positive test, TargetSites_Mouse_Female: liver, lung”, the Potency was 0.705 mmol/kg/day.
With `Cc1cc(N)ccc1N`, under setting [1], the outcome is “inactive; no positive results”.
With `Oc1c(Cl)c(Cl)c(Cl)c(Cl)c1Cl`, the Potency (TD50_Mouse_Note: TD50 is harmonic mean of more than one positive test, TargetSites_Mouse_Female: adrenal gland, liver, vascular system) was 0.0901 mmol/kg/day and the Potency under setting [3] is 0.0864 mmol/kg/day. Under setting [1], the outcome was inactive.
As for `O=C1c2ccccc2-c2ccc3c4c(ccc1c24)-c1ccccc1C3=O`, the Potency under setting [4] is 32.8 mmol/kg/day.
For the compound `C1COCCO1`, under “TD50_Mouse_Note: TD50 is harmonic mean of more than one positive test, greater than ten-fold variation among TD50 values for positive res, TargetSites_Mouse_Female: liver”, the Potency is 2.32 mmol/kg/day.
Regarding `CC(C)=CCl`, the Potency under setting [5] was 0.165 mmol/kg/day.
With `O=[O+][O-]`, for the setting “TD50_Mouse_Note: TD50 is harmonic mean of more than one positive test, TargetSites_Mouse_Female: lung”, the Potency was 0.0392 mmol/kg/day.
As to `O=NN1CCCCCC1`, for the setting “TD50_Mouse_Note: TD50 is harmonic mean of more than one positive test, TargetSites_Mouse_Female: esophagus, liver, lung, nasal cavity, oral cavity, stomach”, the Potency is 0.00412 mmol/kg/day.
In the case of `O=C(O)CN(CC(=O)O)CC(=O)O`, the Potency (TD50_Mouse_Note: TD50 is harmonic mean of more than one positive test, TargetSites_Mouse_Female: kidney) was 13.9 mmol/kg/day. The outcome under setting [1] is “inactive; no positive results”.
Take `Cn1cc(C(=O)[C@@H]2CCc3nc[nH]c3C2)c2ccccc21`: the outcome under setting [1] was “inactive; no positive results”.
With `[N-]=[N+]=O`, the outcome under setting [1] was “inactive; no positive results”.
Regarding `c1ccc2c(c1)cc1ccc3cccc4ccc2c1c34`, where the note is “TD50_Mouse_Note: TD50 is harmonic mean of more than one positive test, TargetSites_Mouse_Female: esophagus, oral cavity, stomach”, the Potency is 0.0138 mmol/kg/day.
Turning to `OC(c1ccc(Cl)cc1)(c1ccc(Cl)cc1)C(Cl)(Cl)Cl`, the Potency under setting [4] was 0.0888 mmol/kg/day.
As for `OCCBr`, under setting [5], the Potency is 0.609 mmol/kg/day.
In the case of `Cc1ccc(S(=O)(=O)NC(=O)NN2CCCCCC2)cc1`, the outcome under setting [1] is “inactive; no positive results”.
Regarding `NCCNc1cccc2ccccc12`, the outcome under setting [1] was “inactive; no positive results”.
As for `Nc1ccc(Sc2ccc(N)cc2)cc1`, the Potency (TD50_Mouse_Note: TD50 is harmonic mean of more than one positive test, TargetSites_Mouse_Female: liver, thyroid gland) is 0.153 mmol/kg/day.
On to `Nc1nc(-c2ccc([N+](=O)[O-])cc2)cs1`, for which, for the setting “TargetSites_Mouse_Female: hematopoietic system”, the Potency was 0.045 mmol/kg/day.
For `Cc1ccc(N)cc1Cl`, the outcome under setting [1] is “inactive; no positive results”.
On to `S=C1NCCN1`, for which the Potency (TD50_Mouse_Note: TD50 is harmonic mean of more than one positive test, TargetSites_Mouse_Female: liver, pituitary gland, thyroid gland) is 0.23 mmol/kg/day.
Consider `Cc1ccc([N+](=O)[O-])cc1N`, for which the Potency under setting [3] is 1.82 mmol/kg/day.
For the compound `C=CCCl`, under setting [1], the outcome was “inactive; no positive results”.
For `OC(O)C(Cl)(Cl)Cl`, the Potency (TD50_Mouse_Note: TD50 is harmonic mean of more than one positive test, TargetSites_Mouse_Female: no positive results) is 0.604 mmol/kg/day.
With `O=C1C=CC(=O)C=C1`, the Potency (TD50_Mouse_Note: TD50 is harmonic mean of more than one positive test, TargetSites_Mouse_Female: hematopoietic system) is 0.0469 mmol/kg/day.
Turning to `Cc1cc2c(nc1N)[nH]c1ccccc12`, the Potency under setting [3] is 0.0863 mmol/kg/day.
As to `O=C1C2CC=CCC2C(=O)N1SC(Cl)(Cl)Cl` (stereo unspecified), the Potency (TD50_Mouse_Note: TD50 is harmonic mean of more than one positive test, TargetSites_Mouse_Female: small intestine) is 7.02 mmol/kg/day.
In the case of `c1ccc2ccccc2c1`, the Potency (TargetSites_Mouse_Female: lung) was 1.27 mmol/kg/day.
For `C1C2OC2C2C1C1CC2C2OC12` (stereo unspecified), the outcome under setting [1] was “inactive; no positive results”.
For `COC(=O)C(c1ccccc1)C1CCCCN1N=O` (stereo unspecified), the outcome under setting [1] is “inactive; no positive results”.
Take `Cc1ccc(C)c(OCCCC(C)(C)C(=O)O)c1`: under setting [1], the outcome was “inactive; no positive results”.
On the same count and under the same terms, the entry for `CCCCCCc1ccc(O)cc1O` is “inactive; no positive results”; for `OC[P+](CO)(CO)CO` it is “inactive; no positive results”.
As to `O=C1c2cccc(O)c2C(=O)c2c(O)cccc21`, the Potency is 0.837 mmol/kg/day.
As to `CC(C)(C)NC[C@H](O)COc1cccc2c1CCCC2=O`, the outcome under setting [1] is “inactive; no positive results”.
Consider `CC(CN1CC(=O)NC(=O)C1)N1CC(=O)NC(=O)C1` (stereo unspecified), for which, for the setting “TD50_Mouse_Note: positive test results only by intraperitoneal or intravenous injection, TargetSites_Mouse_Female: hematopoietic system”, the Potency is 0.0883 mmol/kg/day.
As for `[O-][Cl+]O`, the outcome under setting [1] was “inactive; no positive results”.
With `ClC(Cl)Br`, under setting [2], the Potency was 0.291 mmol/kg/day.
On to `N=C1C=CC(=C(c2ccc(N)cc2)c2ccc(N)cc2)C=C1`, for which the Potency (TD50_Mouse_Note: TD50 is harmonic mean of more than one positive test, TargetSites_Mouse_Female: adrenal gland, liver) is 0.159 mmol/kg/day.
As for `CCCCCCCCCc1ccc(OCCOCCO)cc1`, the result under setting [1] was inactive.
Take `NC(=O)/C(=C\c1ccc([N+](=O)[O-])o1)c1ccco1`: the Potency (TD50_Mouse_Note: TD50 is harmonic mean of more than one positive test, greater than ten-fold variation among TD50 values for positive res, TargetSites_Mouse_Female: stomach) is 0.528 mmol/kg/day.
As to `C=CF`, the Potency (TD50_Mouse_Note: TD50 is harmonic mean of more than one positive test, TargetSites_Mouse_Female: harderian gland, lung, mammary gland, vascular system) is 0.176 mmol/kg/day.
As to `CC(=O)Nc1ccc(O)cc1`, under setting [2], the Potency is 10.7 mmol/kg/day.
On to `CCOC(=O)C(C)(C)Oc1ccc(Cl)cc1`, for which, under setting [1], the outcome is “inactive; no positive results”.
Consider `CCCOC(=O)C1c2cc3c(cc2CC(C)C1C(=O)OCCC)OCO3` (stereo unspecified), for which, under setting [1], the outcome is “inactive; no positive results”.
Regarding `CCCCCNN`, the Potency (TargetSites_Mouse_Female: lung, vascular system) was 0.0423 mmol/kg/day.
Regarding `C=C(Cl)CSC(=S)N(CC)CC`, the Potency (TD50_Mouse_Note: TD50 is harmonic mean of more than one positive test, TargetSites_Mouse_Female: mammary gland) is 0.189 mmol/kg/day.
For the compound `C[C@H]1CCCC(=O)CCC/C=C/c2cc(O)cc(O)c2C(=O)O1`, the Potency (TD50_Mouse_Note: TD50 is harmonic mean of more than one positive test, TargetSites_Mouse_Female: liver, pituitary gland) is 0.123 mmol/kg/day.
With `CCCCC1C(=O)N(c2ccccc2)N(c2ccccc2)C1=O`, under setting [4], the Potency was 1.14 mmol/kg/day.
In the case of `Cc1cc(C)c(S(=O)(=O)O)cc1N=Nc1cc(S(=O)(=O)O)c2ccccc2c1O`, under “TargetSites_Mouse_BothSexes: no positive results”, the result was inactive.
With `CC(C)(C)NC(=O)[C@H]1CC[C@H]2[C@@H]3CC[C@H]4NC(=O)C=C[C@]4(C)[C@H]3CC[C@]12C`, the Potency was 0.875 mmol/kg/day.
`CCCCNNCCCC`: where the note is “TD50_Mouse_Note: TD50 is harmonic mean of more than one positive test, TargetSites_Mouse_Female: hematopoietic system, lung”, the Potency was 0.213 mmol/kg/day.
With `CCC(Br)(CC)C(=O)NC(N)=O`, the outcome under setting [1] is “inactive; no positive results”.
On to `CC1(C)[C@@H](OC2O[C@H](C(=O)O)[C@@H](O)[C@H](O)[C@H]2O[C@H]2O[C@H](C(=O)O)[C@@H](O)[C@H](O)[C@H]2O)CC[C@]2(C)[C@H]3C(=O)C=C4[C@@H]5C[C@@](C)(C(=O)O)CC[C@]5(C)CC[C@@]4(C)[C@]3(C)CC[C@@H]12` (stereo partly specified), for which, under setting [1], the outcome was “inactive; no positive results”.
Regarding `CC(=O)N(O)c1ccc2c(c1)Cc1ccccc1-2`, the Potency (TargetSites_Mouse_Female: esophagus, kidney, liver, stomach, urinary bladder) is 0.026 mmol/kg/day.
Regarding `CCN(CC)CCOc1ccc(/C(=C(\Cl)c2ccccc2)c2ccccc2)cc1`, the result under setting [1] was inactive.
As for `ClC/C=C/CCl`, the Potency (TD50_Mouse_Note: positive test results only by intraperitoneal or intravenous injection, TargetSites_Mouse_Female: peritoneal cavity) was 0.0122 mmol/kg/day.
For `NC(=S)Nc1cccc2ccccc12`, the outcome under setting [1] was “inactive; no positive results”.
On to `O=S1OCCO1`, for which, under setting [1], the outcome was inactive.
Take `CC(CN1c2ccccc2Sc2ccccc21)N(C)C` (stereo unspecified): under setting [1], the outcome was “inactive; no positive results”.
On to `Nc1ccc(/C=C/c2ccc(N)cc2S(=O)(=O)O)c(S(=O)(=O)O)c1`, for which, under setting [1], the outcome is “inactive; no positive results”.
On to `Cc1ccc(Cc2cnc(NCCSCc3ccc(CN(C)C)o3)[nH]c2=O)cn1`, for which the outcome under setting [1] is “inactive; no positive results”.
As to `COc1cc(/C=C/C(=O)CC(=O)/C=C/c2ccc(O)c(OC)c2)ccc1O`, under setting [1], the outcome was “inactive; no positive results”.
The same measure, in the same setting: under `CNc1ncnc2c1ncn2[C@@H]1O[C@H](CO)[C@@H](O)[C@H]1O` stands “inactive; no positive results”; under `C[C@@H]1CCC[C@H](C)N1CCCC(O)(c1ccccc1)c1ccccn1` (stereo partly specified), “inactive; no positive results”.
Take `O=C(O[C@@H]1Cc2c(O)cc(O)cc2O[C@@H]1c1cc(O)c(O)c(O)c1)c1cc(O)c(O)c(O)c1`: where the note is “TD50_Mouse_Note: no positive results”, the outcome is “inactive; no positive results”.
For the compound `NC(=O)CCCCn1ccc(NC(N)=NCC(F)(F)F)n1`, the Potency under setting [5] was 1.84 mmol/kg/day.

The record behind these values is PubChem BioAssay AID1199 (EPA DSSTox, 2008).
